The text below walks through data of patent publication US20230372307A1, “COMBINATION THERAPY USING BAX ACTIVATOR AGENT” (Albert Einstein College of Medicine, priority 2020, published 2023).

Series [1] deals with COLO230. Kind of series: Cell viability (CellTiter-Glo), COLO230. The series is classed as cell-based, human. The settings on record: COLO230, 72 hrs. The method, then: (§1) CELL VIABILITY ASSAY. […] Cell viability was assayed at 72 hrs by addition of CellTiter-Glo Assay reagents according to the manufacturer's protocol (Promega), and luminescence measured using a F200 PRO microplate reader (TECAN). […] Excluding high-throughput drug screenings, viability assays were performed in at least triplicate and the data normalized to 1% vehicle-treated control wells. IC50 values were determined by nonlinear regression analysis using Prism software (Graphpad). Dilutions of compounds was performed using a TECAN D300e Digital Dispenser from 10 mM stocks. The BLISS calculation was determined using the Combenefit program as previously described by Di Veroli et al., Bioinformatics.
A general note: ATP-based viability assays read luminescence as a measure of living cells.

Series [2] deals with U937. The series can be described thus: Cell viability (CellTiter-Glo), U937. The class given is cell-based, human. The settings on record: U937, 72 hrs. The protocol:
as §1

Series [3] relates to OCI-AML3. Kind of series: Cell viability (CellTiter-Glo), OCI-AML3. The settings on record: OCI-AML3, 72 hrs. The class given is cell-based, human. The method, then: as §1
In series [4] the test system is SW480. The series can be described thus: Cell viability (CellTiter-Glo), SW480. The class given is cell-based, human. The settings on record: SW480, 72 hrs. The method, then:
as §1

Series [5] concerns the target T1, BAX (Homo sapiens, UniProt Q07812).
T1 construct: serial dilutions of full-length BAX; made in house; host or cells: Escherichia coli
Kind of series: BIM SAHB-BAX competition fluorescence polarization assay (FPA). The class given is binding. The settings on record: FITC-BIM SAHBA2 50 nM, BAX 500 nM. The method, then:
PRODUCTION OF RECOMBINANT BAX PROTEIN. […] BAX wild type was purified by size-exclusion chromatography in a buffer containing 20 mM HEPES pH 7.2, 150 mM KC1, 1 mM DTT. Superdex 75 10/300 GL and 200 10/300 GL (GE Healthcare) columns were used.
FLUORESCENCE POLARIZATION BINDING As SAYS. […] Firstly, direct binding isotherms were generated by incubating FITC-BIM SAHBA2 (50 nM) with serial dilutions of full-length BAX and fluorescence polarization was measured at 20 min on a F200 PRO microplate reader (TECAN). Subsequently, in competition assays, a serial dilution of small-molecule or acetylated BIM SAHBA2 (Ac-BIM SAHB) was combined with FITC-BIM SAHBA2 (50 nM), followed by the addition of recombinant protein at EC75 concentration, as determined by the direct binding assay (BAX: 500 nM). EC50 and IC50 values were calculated by nonlinear regression analysis of competitive binding curves using Graphpad Prism software.

The test system of series [6] is SU-DHL5. Kind of series: Cell viability assay (CellTiter-Glo) in SU-DHL5. The class given is cell-based. The settings on record: Homo sapiens. The protocol:
as §1

Series [7] has as its system Calu-6 BAX KO cells. The series can be described thus: Viability and caspase 3/7 in WT and CRISPR/Cas9 BAX KO Calu-6 cells. The class given is cell-based, human. The protocol:
as §1
Assays were performed at least in triplicate.

For series [8], the system named is leukemia and lymphoma cell lines. The series can be described thus: cells. The settings on record: Homo sapiens, 72 h, read-out: mean cell viability IC50. The protocol:
as §1

For series [9], the system named is SW480 xenograft. Kind of series: SW480 tumor xenograft efficacy and pharmacodynamic study. The series is classed as in vivo, nu/nu nude mice. The settings on record: 200 mg/kg BTSA1.2, 100 mg/kg Navitoclax, oral daily. The text has this:
TUMOR XENOGRAFT STUDIES. 6-8 weeks old nu/nu nude male mice were purchased from Charles River. […] For efficacy the efficacy study, treatments started once tumors reached a volume of ˜200 mm^3. […] Body weight of mice were monitored during treatment. For the pharmacodynamic study, treatments started once tumors reached a volume of ˜400 mm^3, after 3 days of daily treatment mice were euthanized and tumors were collected for analysis. Ex-Vivo BHS PROFILING. SW480 xenograft vehicle and combination treated tumors, and COLO-1 and COLO-2 PDX tumors were analyzed by BH3 profiling under basal conditions. Single cells from tumors were isolated by mechanically pass them through a […] strainer filter with cold PBS. SW480 xenograft tumors: […] PDX tumors: […] Single cell suspensions were prepared in 1:1 JC-1-MEB buffer, as previously described, and were kept at room temperature for 10 min to allow for cell permeabilization and dye equilibration. After adding the cells to the 384-well plate, 2.0×10^4 cells/well, fluorescence was measured at 590 nm emission 545 nm excitation using the M1000 microplate reader (TECAN) at 30° C. every 15 min for a total of 2 hrs.

The test system of series [10] is COLO-1 PDX. Kind of series: COLO-1 patient-derived xenograft efficacy study. The class given is in vivo, NOD SCID mice. The settings on record: 200 mg/kg BTSA1.2, 50 mg/kg Navitoclax, oral daily up to 18 days. In general terms: A xenograft is tissue or cells of one species grown in another, often human tumour cells in immunodeficient mice.
Source text: 6-8 weeks old NOD SCID male mice were purchased from Charles River. […] PDX characterization: mice were divided into two groups COLO-1 and COLO-2 (n=3) were divided into two groups. Tumor was collected once tumor reached a volume of ˜1,000 mm^3. […] Treatments started once tumors reached a volume of ˜200 mm^3. Tumor volume was monitored every 3-4 days by caliper measurements until the cessation of the experiment when tumors reached an ethically unacceptable size or after 18 days of daily treatment (whichever came first). Body weight of mice were monitored during treatment.
The nature of series [11]: Pharmacokinetic analysis of BTSA1.2 in mice. The class given is in vivo. The settings on record: for AUC(0-inf): read-out: AUCinf_obs; for MRT inf: read-out: MRTINF_obs. The method, then:
[…] […]. ICR (CD-1) male mice were fasted at least 3 hrs and water was available ad libitum before the study. Animals were housed in a controlled environment, target conditions: temperature 18-29° C., relative humidity 30 to 70%. Temperature and relative humidity were monitored daily. […] Experiments performed at […] joint Biopharmacy Laboratory.

Series [12] relates to solid tumor cell lines. Kind of series: Cell viability, solid tumor cell lines of the 46-line panel. The class given is cell-based. The settings on record: Homo sapiens, read-out: mean cell viability IC50. The method, then:
as §1

Series [13] can be described thus: BTSA1.2 and Navitoclax combination in vivo toxicity study. More on the design: species or system CD1-IGS mice. The settings on record: 200 mg/kg BTSA1.2, 100 mg/kg Navitoclax, oral daily for 7 days. The text has this: 6-8 weeks old CD1-IGS male mice were purchased from Charles River. […] Mice were monitored daily; body weight and peripheral blood counts were monitored at the indicated days.

A short description of series [14]: in vivo. The settings on record: both, CD1-IGS, mouse, po.
Procedure: MAXIMUM TOLERATED DOSE (MTD) AND IN VIVO TOXICITY STUDIES. […] Mice were monitored daily and body weight was monitored at the indicated days. After 14 days of the first treatment, mice were subject to euthanasia and necropsy (Histology and Comparative Pathology Facility, Albert Einstein College of Medicine) and tissues (e.g. spleen, liver, kidney, lung, heart) were harvested for fixation in 10% buffered formalin (Fisher Scientific) for pathology analysis. […] Blood counts were determined on a Forcyte Veterinary Hematology Analyzer (Oxford Science Inc.). […] Histological evaluation of tissues and necropsy performed by the Histology and Comparative Pathology Facility board-certified veterinary pathologist.
For series [15] the following is noted: previously determined by Tse et al; cited from earlier work.
Series [16] has as its target T2, BAX:BCL-XL complexes (Homo sapiens, UniProt Q07812).
T2 construct: endogenous in cells; host or cells: BxPC-3, SW480, Calu-6
The series can be described thus: BAX co-immunoprecipitation and immunoblotting. The class given is cell-based. The settings on record: 4 hrs treatment. Background: A western blot detects proteins with antibodies after separation by electrophoresis.
Procedure: Protein lysates were obtained by cell lysis in 0.2% NP-40 buffer (50 mM Tris-HCL, 150 mM NaCl, 1 mM EDTA, 10% Glycerol, 0.2% NP-40, pH 7.50) Immunoprecipitation was performed in 600 mL of 400 μg of proteins, which was precleared by centrifugation followed by exposure to 12 μL (50% slurry) protein A/G beads (Santa Cruz) at 4° C. for 30 min. […] Samples were then exposed to 20 μL (50% slurry) protein A/G beads (Santa Cruz) at 4° C. for 2 hrs and later centrifuged and washed three times with 0.2% NP-40 buffer and boiled in loading buffer (Life Technologies). […] For visualization of proteins with Odyssey Infrared Imaging System (LI-COR Biosciences) membranes were blocked in Odyssey Blocking Buffer (LI-COR Biosciences). Primary antibodies were incubated overnight at 4° C. in a 1:1,000 dilution. After washes, membranes were incubated with an IRdye800-conjugated goat anti-rabbit IgG or IRdye800-conjugated goat anti-mouse IgG secondary antibodies (LI-COR Biosciences) in a 1:10,000 and 1:20,000 dilution, respectively.
After 2 hr, FBS was supplemented to a final concentration of 10%. […] The supernatants were isolated by centrifugation at 15,000×g for 10 min and the mitochondrial pellets solubilized in NP-40 lysis buffer (50 mM Tris-HCL pH 7.4, 150 mM NaCl, 5 mM MgCl2, 1 Mm EGTA, 10% Glycerol, 0.2% NP-40). […]

[17] abbreviates: SU-DHL-5, 72 h, read-out: Viability Inhibition- SU- DHL5- IC50 (μM).
Setting [18] is: male, ICR (CD-1), mouse, IV 1 mg/kg, mice plasma, Mean.
[19] abbreviates: male, ICR (CD-1), mouse, PO 3 mg/kg, mice plasma, Mean.
The mark [20] stands for this setting: SU-DHL-5, 72 hrs, read-out: Viability Inhibition- SU- DHL5- IC50.

Read-outs that look alike come from different tables or passages of the source. Some results are limits rather than exact numbers.

T1 sequence (Q07812 whole entry): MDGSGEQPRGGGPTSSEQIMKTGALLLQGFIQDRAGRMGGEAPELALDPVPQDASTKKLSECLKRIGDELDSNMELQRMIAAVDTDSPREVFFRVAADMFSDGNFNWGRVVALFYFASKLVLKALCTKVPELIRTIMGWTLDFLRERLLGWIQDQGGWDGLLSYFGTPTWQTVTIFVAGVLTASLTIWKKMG
T2 sequence (Q07812 whole entry, one chain of several): as the sequence (Q07812 whole entry) above

As to `Cc1c(-c2ccc(N3CCc4cccc(C(=O)Nc5nc6ccccc6s5)c4C3)nc2C(=O)O)cnn1CC12CC3CC(CC(C3)C1)C2` [Compound A-1331852], the “single agent effect on cell viability” value is listed as “not effective” in series [1], “moderately potent as single agent” in series [2], “moderately potent as single agent” in [3] and “potent” in series [4].

`O=C(O)c1cccc(NN=C2C(=O)N(c3nc(-c4ccccc4)cs3)N=C2c2ccccc2)c1` [Compound 5]: the IC50 (usually the concentration that gives 50% inhibition) in series [5] is 0.497 µM; in series [6] (setting [17]), 2.8 µM.

On to `CN[C@@H]1C[C@H]2O[C@@](C)([C@@H]1OC)n1c3ccccc3c3c4c(c5c6ccccc6n2c5c31)C(=O)NC4` [staurosporine], for which, in series [7], the “sensitivity of Calu-6 cells lacking BAX expression” value is on record as “still sensitive”.

`Cc1nc(N/N=C2\C(=O)N(c3nc(-c4ccccc4)cs3)N=C2c2ccccc2)sc1C` [BTSA1.2, 4-(2-(4,5-dimethylthiazol-2-yl)hydrazono)-5-phenyl-2-(4-phenyl-thiazol-2-yl)-2,4-dihydro-3H-pyrazol-3-one]: the IC50 was below 3 µM in series [8], 0.109 µM in series [5], above 10 µM in [12] (72 h) and 0.23 µM in series [6] (setting [17]). The tumor growth result in series [9] was “no significant efficacy in reducing tumor growth”; in series [10], “some PDX showed to respond to BTSA1.2 only treatment as their tumor growth was suppressed”. In addition, the necropsy finding result (200 mg/kg BTSA1, 300 mg/kg BTSA1.2, oral gavage daily) is “die by kidney failure after 3 days of treatment”. The “body weights and organ histology” value (BTSA1.2 up to 200 mg/kg oral) was “constant body weights and organs examined were between normal histologic limits”. In addition, the “dose limiting toxicity (DLT)” value (oral daily for 5 days) was 300 mg/kg. Moreover, the “single agent effect on cell viability” value in [4] is on record as “resistant”. The compound further returned a CL_obs in series [11] (IV 1 mg/kg, mice plasma, Mean) of 0.282. In addition, the VSS_obs in series [11] (IV 1 mg/kg, mice plasma, Mean) is 555.803. Moreover, the bioavailability in [11] (male, ICR (CD-1), mouse, plasma, 3 mg/kg, oral administration, mice, read-out: oral bioavailability (% F)) is around 50%; in [11] (male, ICR (CD-1), mouse, plasma, PO 3 mg/kg vs IV 1 mg/kg, mice, read-out: F(%)), 49.2%. Besides, the Cmax is around 8 µM in [11] (male, ICR (CD-1), mouse, plasma, 3 mg/kg, oral administration, mice, read-out: peak concentration (Cmax)); 2670 ng/mL in series [11] (male, ICR (CD-1), mouse, IV 1 mg/kg, mice plasma, Mean, read-out: Cmax); 3690 ng/mL in series [11] (male, ICR (CD-1), mouse, PO 3 mg/kg, mice plasma, Mean, read-out: Cmax). Further, the exposure (AUC) (as a rule, the area under the concentration-time curve, a measure of exposure) in [11] (male, ICR (CD-1), mouse, plasma, 3 mg/kg, oral administration, mice, read-out: plasma exposure (AUC)) is around 100 µM·h. Moreover, the half-life in series [11] (male, ICR (CD-1), mouse, plasma, iv, 1 mg/kg, IV 1 mg/kg, mice plasma, Mean, read-out: T1/2 (converted)) is 24.6 h; in [11] (male, ICR (CD-1), mouse, plasma, po, 3 mg/kg, PO 3 mg/kg, mice plasma, Mean, read-out: T1/2 (converted)), 14.4 h; in series [11] (male, ICR (CD-1), mouse, plasma, po, 3 mg/kg, oral administration, read-out: half-life (T1/2) in mouse plasma (converted)) it was around 14 h. In addition, the results for the exposure AUC(0-t) in series [11] (setting [18]) and in series [11] (setting [19]) were 31900 ng·h/mL and 47000 ng·h/mL, respectively. Also, the Tmax (as a rule, the time from dosing to the highest level) in [11] (setting [18]) amounted to 2 h; in series [11] (setting [19]), 3.33 h. The AUC(0-inf) was found to be 67700 ng·h/mL in series [11] (setting [18]) and 70000 ng·h/mL in [11] (setting [19]). Moreover, the values for the MRT inf in series [11] (setting [18]) and in [11] (setting [19]) were 35.7 h and 21.7 h, respectively. In series [11] (oral administration), the “half-life (T1/2) in mouse plasma” value is around 15 h. Further, the “body weight, blood counts and organs” value in series [13] is “body weight and blood counts were measured in normal levels but reduction in white blood cells and lymphocytes counts was observed after repeated dosing”. In series [14], the MTD came to 200 mg/kg.

`O=C1/C(=N\Nc2nccs2)C(c2ccccc2)=NN1c1nc(-c2ccccc2)cs1` [BTSA1]: the IC50 in series [6] (setting [17]) was determined as 0.4 µM.

For `CC1(C)CCC(c2ccc(Cl)cc2)=C(CN2CCN(c3ccc(C(=O)NS(=O)(=O)c4ccc(N[C@H](CCN5CCOCC5)CSc5ccccc5)c(S(=O)(=O)C(F)(F)F)c4)cc3)CC2)C1` [Navitoclax, 4-(4-{[2-(4-Chlorophenyl)-5,5-dimethyl-1-cyclohexen-1-yl]methyl}-1-pipera-zinyl)-N-[(4-{[(2R)-4-(4-morpholinyl)-1-(phenylsulfanyl)-2-butanyl]amino}-3-[(trifluoromethyl)sulfonyl]phenyl)sulfonyl]benzamide, reference compound], in series [9], the tumor growth entry is on record as “no significant efficacy in reducing tumor growth”. For the same compound, the MTD in [15] is reported as 100 mg/kg/po. Besides, in series [4], the “single agent effect on cell viability” value was “resistant”. Also, the concentration for half-maximal inhibition (IC50) in series [12] (72 hrs, solid tumor cell lines) was above 10 µM. For the same compound, the “BAX:BCL-XL complexes by BAX co-immunoprecipitation” value in series [16] is listed as “disrupted BAX:BCL-XL complexes”. Also, in series [13], the “body weight, blood counts and organs” value is “lymphocyte, white blood cell and platelet counts reached levels below normal counts upon a single treatment”.

As for `CCOc1ccccc1NN=C1C(=O)N(c2nc(-c3ccccc3)cs2)N=C1C` [BAM7, reference compound], the half-maximal inhibitory concentration (IC50) in series [6] (setting [20]) was above 25 µM.

For `CC1=NN(c2nc(-c3ccccc3)cs2)C(=O)C1=NNc1nccs1` [Compound 3], the IC50 is 2.38 µM in [5] and above 25 µM in series [6] (setting [20]).
